Data as given in US12501900B2, “Heterocyclyl pyridazine as fungicidal compounds” (Bayer Aktiengesellschaft, priority 2018, dated 2025).

Experiments:
[1] = tested on: Pyrenophora teres; assay: In vivo preventive test on Pyrenophora teres (net blotch on barley); details: 240 h, 500 ppm of active ingredient, preventive spray on barley, evaluated 10 days after inoculation, read-out: efficacy
[2] = tested on: Alternaria alternata; assay: Alternaria alternata in vitro cell test; assay type: cell-based; details: 120 h, 20 ppm of active ingredient, liquid culture, 5 days incubation, read-out: efficacy (inhibition of fungal growth)
[3] = tested on: Septoria tritici; assay: Septoria tritici in vitro cell test; assay type: cell-based; details: Zymoseptoria tritici, 168 h; 20 ppm of active ingredient; liquid culture, 7 days incubation; read-out: efficacy (inhibition of fungal growth)
Procedure: Example: Septoria tritici In Vitro Cell Test • Solvent: DMSO • Culture medium: 14.6 g anhydrous D-glucose (VWR), 7.1 g Bacteriological Peptone (Oxoid), • 1.4 g granulated Yeast Extract (Merck), QSP 1 liter • Inoculum: spore suspension Fungicides were solubilized in DMSO and the solution used to prepare the required range of concentrations. The final concentration of DMSO used in the assay was ≤1%. A spore suspension of Septoria tritici was prepared and diluted to the desired spore density. Fungicides were evaluated for their ability to inhibit spore germination and mycelium growth in liquid culture assay. The compounds were added in the desired concentration to the culture medium with spores. After 7 days incubation, fungi-toxicity of compounds was determined by spectrometric measurement of mycelium growth. Inhibition of fungal growth was determined by comparing the absorbance values in wells containing the fungicides with the absorbance in control wells without fungicides.

Row | Structure (SMILES) | pest or weed control at 500 ppm [1] [%] | inhibition at 20 ppm [2] [%] | inhibition at 20 ppm [3] [%]
1 | COc1cccc(Oc2nnc(Cl)cc2C2=NOCC(Cc3ccc(C)cc3C)N2)c1F (racemic) [I-005, rac-3-[6-chloro-3-(2-fluoro-3-methoxy-phenoxy)pyridazin-4-yl]-5-[(2,4-dimethylphenyl)methyl]-5,6-dihydro-4H-1,2,4-oxadiazine] | 90 to 100 | 90 to 100 | 70 to 79
2 | C=C(OCC)c1cc(C2=NOCC(Cc3ccc(C)cc3C)N2)c(Oc2cccc(C(F)(F)F)c2)nn1 (racemic) [I-009, rac-5-[(2,4-dimethylphenyl)methyl]-3-[6-(1-ethoxyvinyl)-3-[3-(trifluoro-methyl)phenoxy]pyridazin-4-yl]-5,6-dihydro-4H-1,2,4-oxadiazine] | 90 to 100 | 90 to 100 | 90 to 100
3 | COCCOc1c(Cl)nnc(Oc2cccc(C(F)(F)F)c2)c1C1=NOCC(Cc2ccc(C)cc2C)N1 (racemic) [I-072, rac-3-[6-chloro-5-(2-methoxyethoxy)-3-[3-(trifluoro-methyl)phenoxy]pyridazin-4-yl]-5-[(2,4-dimethylphenyl)methyl]-5,6-dihydro-4H-1,2,4-oxadiazine] | 80 to 89 | 90 to 100 | 80 to 89
4 | FC(F)(F)c1cccc(Oc2nnc(Cl)cc2C2=NOCC(Cc3ccc(Br)cc3Cl)N2)c1 (racemic) [I-016, rac-5-[(4-bromo-2-chloro-phenyl)methyl]-3-[6-chloro-3-[3-(trifluoromethyl)phenoxy]pyridazin-4-yl]-5,6-dihydro-4H-1,2,4-oxadiazine] | 90 to 100 | 90 to 100 | 90 to 100
